Here are results for nine molecules from patent US20260262644A1, “Antifungal compositions comprising natamycin” (Patent Nata B.V., priority 2023, published 2026).

For series [1], the system named is Pythium ultimum. The experiment in a line: Mycelium growth on PDA petri dishes containing natamycin and/or solvent; synergy by Colby equation. It is filed as cell-based. The source says:
The Colby equation (Colby, 1967. Weeds 15: 20-22) calculates the expected antifungal activity (E in %) of a combination comprising more than one active ingredients:
wherein X and Y are the observed antifungal activities (in %) of the individual active ingredients x and y, respectively. If the observed antifungal activity (O in %) of the combination exceeds the expected antifungal activity (E in %) of the combination and the synergy factor O/E is thus >1.0, the combined application of the active ingredients and solvent leads to a synergistic antifungal effect.
Agar medium was prepared by mixing in a 100 ml Duran bottle 3.9 g of potato dextrose agar (PDA; Carl-Roth GmbH+Co. KG, Karlsruhe, Germany) with 100 ml deionized water and autoclaving the Duran bottle at 120° C. for 15 minutes. After autoclaving, the solution was cooled by putting it in a 50° C. oven for about two hours. Afterward the semi-liquid PDA solution was carefully mixed with natamycin and/or solvent dosages as specified in Table 2 (left column). The medium in the Duran bottle was divided over 5 petri dishes (90×15 mm), 20 ml per petri dish by using 25 ml serological pipets (ROTILABO®; Carl-Roth). Each natamycin and/or solvent treatment was performed in five fold.
Hereafter, a circular agar mycelium plug (circular segment with a height on 5 mm of agar, fully grown with fresh Pythium ultimum mycelium, which was cut out of a petri dish with the broad side of a yellow pipette tip (Greiner Bio-One, 200 μl tips) with a diameter of 5 mm, was placed in the center of the petri dish. Hereafter the petri dishes were placed in the incubator at 22° C. Measurement of the fungal growth was done using caliper.
The solvent levels and the period after which the assessments were made are presented as specified for the different solvents are presented in Table 2 below. Synergistic calculation was done using the Colby equation. Experiment was performed in 5-fold.

The subject of series [2] is Botrytis cinerea. Described as above. It is filed as cell-based. Particulars: 1 day after plug.
Series [3] has as its system Pythium ultimum. Put plainly: Emergence of coated spinach seeds in artificially infected soil. It is filed as in vivo. The following applies: natamycin 0.25, BL 0, thymol 0 mg/g seeds, 6 days after sowing.
Method: Spinach seeds were placed in soil that was artificially infected (see below for method).
Soil infection was obtained via incubation of soil with infected, killed rye seeds. […] The dead rye seeds were infected with Pythium ultimum PDA plugs (circular segments of PDA, covered with freshly fully grown Pythium ultimum mycelium, which were cut out of a petri dish with the broad side of a yellow pipette tip (Greiner Bio-One, 200 μl tips) with a diameter of 5 mm). Three P. ultimum agar plugs were placed in the 500 ml jar containing the 50 g autoclaved (dead) rye seeds, which was further incubated at 22° C. for one week (16 h day light, 8 hours dark). To prepare the infected soil, potting soil (Tuinaarde, ophoog grond, purchased from Welkoop) were placed in round transparent plastic containers (9 cm in diameter, 4.5 cm high, volume 250 ml). Ten infected rye seeds, that acted as a carrier for P. ultimum, were placed in each round plastic container. To treat the spinach seeds, 77.8 μl of treatment mix (see below) was added to 1 g of seeds in a plastic container. The seeds were shaken and let to dry. Once dried, 20 treated spinach seeds were added to the inoculated soil. The rye seeds and spinach seeds were mixed into the soil, so that both seed types were homogenously distributed within the soil as well as covered by the soil. […] Emergence of the seedlings was assessed. […]
Series [4] has as its system Pythium ultimum. Put plainly: Emergence of coated radish seeds in artificially infected soil. Type of series: in vivo. The following applies: natamycin 0.05, thymol 0 mg/g seeds, 2 days after sowing.
Method: Soil infection was obtained via incubation of soil with infected, killed rye seeds. For this, 50 g of rye seeds and 50 ml water were put into a 500 ml glass jar, which was autoclaved twice (121° C., 15 min, 15 psi). The dead rye seeds were infected with Pythium ultimum PDA plugs (circular segments of PDA, covered with freshly fully grown Pythium ultimum mycelium, which were cut out of a petri dish with the broad side of a yellow pipette tip (Greiner Bio-One, 200 μl tips) with a diameter of 5 mm). Three P. ultimum agar plugs were placed in the 500 ml jar containing the 50 g autoclaved (dead) rye seeds, which was further incubated at 22° C. for one week (16 h day light, 8 hours dark). To prepare the infected soil, potting soil (Tuinaarde, ophoog grond, purchased from Welkoop) were placed in round transparent plastic containers (9 cm in diameter, 4.5 cm high, volume 250 ml). Ten infected rye seeds, that acted as a carrier for P. ultimum, were placed in each round plastic container. […] The seeds were shaken and let to dry. […] The containers were closed with transparent lids and placed into a growth cabinet with the following growth conditions: 16 h day light, 22° C. constant temperature, 70% humidity. Emergence of the seedlings was assessed. For each treatment 3 pots were used, resulting in 3 replicates. […]
A short description of series [5]: Solubility of natamycin in solvents (HPLC). It is filed as physicochemical. As for the experimental part:
The solubility of natamycin was measured in water and in the water-miscible solvent DMSO. For this, 240.6 mg and 94.3 mg of natamycin at a purity of 95% (DSM) were diluted in 50 ml of water and DMSO, respectively. The mixtures were sonicated for 30 minutes and analysed by HPLC. The HPLC system was an Agilent 1100 system. The column used was a ACE C18 RP column, 250×4.6 mm with pore size 5 μm. The mobile phase consisted of 1 g ammonium chloride and 3 g ammonium acetate dissolved in 760 mL water, and mixed with 240 mL acetonitrile and 5 mL tetrahydrofuran (THF). The speed of the flow was 3.0 ml/min and the column temperature was 25° C. The injection volume was 20 μL. Natamycin was detected with a spectrophotometer at a wavelength of 303 nm. All samples were centrifugated and filtered through 0.45 μm HPLC filters before analysis. The amount of dissolved natamycin measured in water and DMSO were 32 mg/kg and 2571 mg/kg, respectively (see Table 12).
For the water-miscible solvent Purasolv® EL, and the water-immiscible solvents BL and EHL, natamycin was added until it no longer dissolved. The mixtures were then filtered and analysed by HPLC. The amount of dissolved natamycin were 832, 211, and 271 mg/kg for EL, BL, and EHL, respectively (Table 12).

Where [6] appears, read: natamycin-solvent 0-12.5 ppm, 1 day after plug.
The mark [7] stands for this setting: natamycin-solvent 0-25 ppm, 1 day after plug.
[8] abbreviates: natamycin-solvent 0-250 ppm, 1 day after plug.
The mark [9] stands for this setting: natamycin-solvent 0-125 ppm, 2 days after plug, Tables 4-5.
[10] abbreviates: natamycin-solvent 0-250 ppm, 2 days after plug, Tables 4-5.
[11] abbreviates: natamycin-solvent 0-500 ppm, 2 days after plug, Tables 4-5.
[12] abbreviates: natamycin-solvent 0-12.5 ppm, 2 days after plug.
Where [13] appears, read: natamycin-solvent 0-25 ppm, 2 days after plug.
The mark [14] stands for this setting: natamycin-solvent 0-250 ppm, 2 days after plug.

Regarding `CC(O)C(=O)N(C)C` (stereo not shown) [Agnique ® AMD 3L, dimethyllactamide], the Avg infected area in series [1] (setting [6]) came out at 1220.5 mm^2; in series [1] (setting [7]), 1116.3 mm^2; in series [1] (setting [8]), 1278.7 mm^2. In addition, the Observed % in series [1] (setting [6]) came to 10.31%; in series [1] (setting [7]), 17.97%; in series [1] (setting [8]) it was 6.04%.

For the molecule `CC(O)C(=O)N(C)C` (stereo not shown) [DMAC, dimethyllactamide], in series [1] (setting [6]), the Avg infected area is listed as 1251.6 mm^2 and the Observed % is 6.73%. Moreover, in series [1] (setting [8]), the Avg infected area came to 1316.1 mm^2 and the Observed % worked out at 1.93%.

For the molecule `C[S+](C)[O-]` [DMSO, Dimethyl Sulfoxide], the Avg infected area in series [1] (setting [9]) was found to be 5247.969 mm2; in series [1] (setting [10]) it was 5238.583 mm2; in series [1] (setting [11]) it was 5129.162 mm2; in series [1] (natamycin-solvent 0-1000 ppm, 2 days after plug, Tables 4-5) it was 4475.89 mm2.

In the case of `CCCCC(CC)COC(=O)[C@H](C)O` (stereo partly drawn) [EHL, 2-ethylhexyl L-lactate], the Avg infected area in series [1] (natamycin-solvent 0-125 ppm, 1 day after plug, Tables 6-7) is listed as 290.1899 mm2; in series [1] (natamycin-solvent 0-250 ppm, 1 day after plug, Tables 6-7), 34.78 mm2; in series [2] (natamycin-solvent 0-0.5 ppm) it was 1740.142 mm2. The Observed % in series [2] (natamycin-solvent 0-0.5 ppm) is 11.74%.

Take `CCOC(=O)[C@H](C)O` [EL, ethyl L-lactate]: the Avg infected area in series [1] (natamycin-solvent 0-12.5 ppm, 1 day after plug, Tables 6-7) is recorded as 625.9774 mm2; in series [1] (natamycin-solvent 0-25 ppm, 1 day after plug, Tables 6-7), 574.2358 mm2; in series [1] (natamycin-solvent 0-50 ppm, 1 day after plug, Tables 6-7), 619.378 mm2; in series [2] (natamycin-solvent 0-0.5 ppm) it was 1390.376 mm2. Also, the Observed % in series [2] (natamycin-solvent 0-0.5 ppm) amounted to 29.48%.

Regarding `CCO` [EtOH, Ethanol], the Avg infected area is 5488.804 mm2 in series [1] (setting [9]), 5286.064 mm2 in series [1] (setting [10]), 4366.453 mm2 in series [1] (setting [11]) and 1602.867 mm2 in series [2] (natamycin-solvent 0-0.5 ppm). Further, the Observed % in series [2] (natamycin-solvent 0-0.5 ppm) is 18.70%.

With `C=CCCCCCCCC(=O)N(C)C` [Hallcomid ® 1025], the Avg infected area in series [1] (setting [12]) was 3666.2 mm^2; in series [1] (setting [13]), 2118.6 mm^2; in series [1] (setting [14]), 0 mm^2. Also, the values for the Observed % in series [1] (setting [12]), in series [1] (setting [13]) and in series [1] (setting [14]) were 30.89%, 60.06% and 100.00%, respectively.

For the molecule `C[C@@H]1C/C=C/C=C/C=C/C=C/[C@H](O[C@@H]2O[C@H](C)[C@@H](O)[C@H](N)[C@@H]2O)C[C@@H]2O[C@](O)(C[C@@H](O)C[C@H]3O[C@@H]3/C=C/C(=O)O1)C[C@H](O)[C@H]2C(=O)O` [Natamycin], the Avg infected area in series [1] (natamycin-solvent 25-0 ppm, 2 days after plug, Tables 4-5) turned out to be 4397.811 mm2; in series [1] (natamycin-solvent 50-0 ppm, 1 day after plug, Tables 6-7), 563.7967 mm2; in series [1] (natamycin-solvent 50-0 ppm, 2 days after plug, Tables 4-5), 4891.484 mm2; in series [1] (natamycin-solvent 100-0 ppm, 2 days after plug, Tables 4-5) it was 4435.301 mm2; in series [1] (natamycin-solvent 200-0 ppm, 2 days after plug, Tables 4-5) it was 5059.918 mm2; in series [2] (natamycin-solvent 0.5-0 ppm), 1183.171 mm2. For the same molecule, the values for the Observed % in series [2] (natamycin-solvent 0.5-0 ppm), in series [3] and in series [4] were 39.99%, 37.50% and 13.64%, respectively. The figures for the Avg germination in series [3] and in series [4] were 18.3 and 41.7, respectively. The “Natamycin concentration (amount of dissolved natamycin)” value in series [5] (in 2-ethylhexyl L-lactate (Purasolv EHL)) is 271 mg/kg; in series [5] (in DMSO) it was 2571 mg/kg; in series [5] (in ethyl L-lactate (Purasolv EL)), 832 mg/kg; in series [5] (in n-butyl L-lactate (Purasolv BL)) it was 211 mg/kg; in series [5] (in water), 32 mg/kg.

Xylene: in series [1] (setting [13]), the Avg infected area was determined as 5371.2 mm^2 and the Observed % is reported as 1.35%.
